Each block holds one molecule with its values, some of them ahead of it.
Key:
[1] = target: T1, Induced myeloid leukemia cell differentiation protein Mcl-1 (Homo sapiens, UniProt Q07820); assay: Inhibition of FAM-labeled Bid BH3 peptide binding to human recombinant MCL1 by fluorescence polarization assay relative to control
[2] = target: T2, Apoptosis regulator Bcl-2 (Homo sapiens, UniProt P10415); assay: Inhibition of FAM-labeled Bid BH3 peptide binding to human recombinant BCL2 by fluorescence polarization assay relative to control
[3] = target: T2, Apoptosis regulator Bcl-2; assay: Inhibition of FITC-labeled Bim BH3 peptide binding to GST-tagged BCL2 (unknown origin) preincubated for 2 mins followed by FITC-labeled Bim BH3 peptide addition measured after 10 mins by fluorescence polarization assay
[4] = target: T1, Induced myeloid leukemia cell differentiation protein Mcl-1; assay: Inhibition of fluorescein-labeled Bid BH3 peptide (79 to 99 residues) binding to His-tagged MCL1 (171 to 327 residues) (unknown origin) expressed in Escherichia coli Bl21(DE3) cells incubated for 3 hrs by fluorescence polarization assay
[5] = Inhibition of FITC-labeled Bid BH3 peptide binding to GST-tagged MCL1 harboring N-terminal and C-terminal point mutant (unknown origin) expressed in Escherichia coli Bl21(DE3) cells by fluorescence polarization assay; set-up: species or system Homo sapiens
[6] = target: T1, Induced myeloid leukemia cell differentiation protein Mcl-1; assay: Inhibition of biotinylated Bim BH3 peptide binding to GST-tagged MCL1 (unknown origin) preincubated for 15 mins followed by biotinylated Bim BH3 peptide addition measured after 2 hrs by ELISA
[7] = target: T1, Induced myeloid leukemia cell differentiation protein Mcl-1; assay: Inhibition of 5-FAM-labeled Bid BH3 peptide binding to MCL1 (unknown origin) by fluorescence polarization assay
[8] = target: T1, Induced myeloid leukemia cell differentiation protein Mcl-1; assay: Inhibition of 5-FAM-labeled Bid BH3 peptide binding to MCL1 (unknown origin) at 50 uM by fluorescence polarization assay relative to control
[9] = target: T1, Induced myeloid leukemia cell differentiation protein Mcl-1; assay: Binding affinity to MCL1 (unknown origin) incubated for 30 mins by TR-FRET assay
MEF [10] = assay: Induction of apoptosis in MEF assessed as dead cells at 10 uM after 24 hrs by Annexin V/propidium iodide staining based method relative to control; type: functional, Mus musculus
MEF [11] = assay: Induction of apoptosis in […] double knock out MEF assessed as dead cells at 10 uM after 24 hrs by Annexin V/propidium iodide staining based method relative to control; type: functional, Mus musculus
Bcl-2-like protein 1 = Bcl-2-like protein 1 (Homo sapiens, UniProt Q07817); assay: (§1) Inhibition of FAM-labeled Bim BH3 peptide binding to recombinant human N-terminal GST-tagged Bcl-XL (1 to 212 residues) expressed in Escherichia coli BL21(DE3) cells preincubated for 30 mins followed by FAM-labeled Bim BH3 peptide addition measured after 20 mins by fluorescence polarization assay
[12] = target: T2, Apoptosis regulator Bcl-2; assay: as §1, with “Bid” for “Bim”, “BCL2” for “Bcl-XL”, “34/ 92 to 207” for “212”, “residues) fused with human Bcl-XL” for “residues)”
[13] = as §1, with “Bid” for “Bim”, “recombinant N-terminal His8-tagged” for “recombinant”, “MCL1 (209” for “N-terminal GST-tagged Bcl-XL (1”, “327 residues)/mouse MCL1 (152 to189” for “212”
[14] = target: T1, Induced myeloid leukemia cell differentiation protein Mcl-1; assay: Inhibition of FITC-labeled Bid BH3 peptide binding to human GST-tagged MCL1 lacking C-terminal transmembrane domain expressed in Escherichia coli XL-1 Blue cells preincubated for 10 mins followed by FITC-labeled Bid BH3 peptide addition measured after 20 mins by fluorescence polarization assay
[15] = target: T2, Apoptosis regulator Bcl-2; assay: Inhibition of FITC-labeled Bid BH3 peptide binding to human GST-tagged BCL2 lacking C-terminal transmembrane domain expressed in Escherichia coli XL-1 Blue cells preincubated for 10 mins followed by FITC-labeled Bid BH3 peptide addition measured after 20 mins by fluorescence polarization assay
[16] = target: Induced myeloid leukemia cell differentiation protein Mcl-1 homolog (Mus musculus, UniProt P97287); assay: Inhibition of biotinylated Bim BH3 peptide binding to recombinant GST-tagged mouse MCL1 with N-terminal truncation of 151 residues and C-terminal truncation of 23 residues expressed in Escherichia coli BL21(DE3) cells preincubated for 1 hr followed by biotinylated Bim BH3 peptide addition measured after 1 hr by ELISA
Sequence of Induced myeloid leukemia cell differentiation protein Mcl-1 homolog (P97287 whole entry, the tested form may be a part): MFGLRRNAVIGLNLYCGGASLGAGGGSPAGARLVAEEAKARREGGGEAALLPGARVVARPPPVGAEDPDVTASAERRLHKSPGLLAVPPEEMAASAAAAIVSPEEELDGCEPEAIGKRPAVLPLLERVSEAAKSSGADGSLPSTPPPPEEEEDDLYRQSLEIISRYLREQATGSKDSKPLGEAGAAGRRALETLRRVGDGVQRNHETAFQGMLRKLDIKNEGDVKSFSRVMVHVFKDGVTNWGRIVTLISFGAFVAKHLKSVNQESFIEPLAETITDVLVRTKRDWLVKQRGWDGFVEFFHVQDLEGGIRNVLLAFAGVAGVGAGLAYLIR

T2 sequence (P10415 whole entry): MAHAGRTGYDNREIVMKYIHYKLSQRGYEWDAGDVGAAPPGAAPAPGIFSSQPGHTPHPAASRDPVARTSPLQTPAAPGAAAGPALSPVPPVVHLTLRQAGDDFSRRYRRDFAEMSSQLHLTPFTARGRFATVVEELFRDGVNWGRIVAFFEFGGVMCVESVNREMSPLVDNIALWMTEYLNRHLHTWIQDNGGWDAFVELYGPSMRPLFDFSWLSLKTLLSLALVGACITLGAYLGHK
T1 sequence (Q07820 whole entry): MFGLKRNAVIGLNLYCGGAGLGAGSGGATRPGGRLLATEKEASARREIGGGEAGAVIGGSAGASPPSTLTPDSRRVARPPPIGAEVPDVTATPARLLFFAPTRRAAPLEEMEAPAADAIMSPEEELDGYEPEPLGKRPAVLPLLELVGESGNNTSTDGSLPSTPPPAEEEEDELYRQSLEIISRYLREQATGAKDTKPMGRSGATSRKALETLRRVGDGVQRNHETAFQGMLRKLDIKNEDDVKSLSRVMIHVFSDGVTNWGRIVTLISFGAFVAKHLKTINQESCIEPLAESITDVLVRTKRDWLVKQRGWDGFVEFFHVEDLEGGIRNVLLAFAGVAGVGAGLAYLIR
Sequence of Bcl-2-like protein 1 (Q07817 whole entry, the tested form may be a part): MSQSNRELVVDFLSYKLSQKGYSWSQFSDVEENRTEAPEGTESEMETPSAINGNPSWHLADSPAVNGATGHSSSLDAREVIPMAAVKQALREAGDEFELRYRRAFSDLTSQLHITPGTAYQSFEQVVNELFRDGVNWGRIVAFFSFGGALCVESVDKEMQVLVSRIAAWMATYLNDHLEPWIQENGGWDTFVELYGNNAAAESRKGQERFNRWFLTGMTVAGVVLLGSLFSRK

Structure (SMILES): Cc1cc2c(C(C)C)c(O)c(O)cc2c(O)c1-c1c(C)cc2c(C(C)C)c(O)c(O)cc2c1O [APOGOSSYPOL]
Ki [3]: 2800 nM

Structure (SMILES): Cc1cs/c(=N\C2CCCCC2)n1/N=C/c1ccc(O)c(O)c1O
IC50 [5]: 4780 nM

Structure (SMILES): O=C(O)CSc1cc(NS(=O)(=O)c2ccc(-c3ccc(Cl)cc3)cc2)c2ccccc2c1O
IC50 [4]: 170 nM

Structure (SMILES): O=C(Cc1cc(O)c(O)c(O)c1)NCc1ccc(C(=O)N2CCN(Cc3ccccc3-c3ccccc3)CC2)cc1
Ki [7]: 180 nM
inhibition [8]: 66%

Structure (SMILES): O=C(O)CSc1cc(NS(=O)(=O)c2ccc(Br)cc2)c2ccccc2c1O
Ki [4]: 1870 nM
Activity (MEF [10]): 60%
Activity (MEF [11]): 16%

Structure (SMILES): CCOC(=O)C1=C(C)N=c2s/c(=C\c3cn(Cc4ccc(-c5ccccc5)cc4)c4ccccc34)c(=O)n2C1c1ccccc1 (stereo not given)
Ki (Bcl-2-like protein 1): 17 nM
Ki [12]: 530 nM
Ki [13]: 200 nM

Structure (SMILES): O=C(c1ccccc1O)c1[nH]c(Cl)c(Cl)c1-n1c(C(=O)c2ccccc2O)cc(Cl)c1Cl
IC50 [16]: 10000 nM

Now from value to molecule:

Ki [1]: < 300 nM
Ki [2]: < 300 nM
Structure (SMILES): CC(C)c1ccccc1Cc1cc(C(=O)Nc2ccc(S(=O)(=O)c3ccccc3C(C)(C)C)cc2)c(O)c(O)c1O

IC50 [4]: 170 nM
Structure (SMILES): O=C(O)CSc1cc(NS(=O)(=O)c2ccc(-c3ccc(F)cc3F)cc2)c2ccccc2c1O

IC50 [6]: 1400 nM
Structure (SMILES): O=C1c2ccc(OS(=O)(=O)C(F)(F)F)cc2Oc2c(Cl)cc(C(=O)c3ccccc3O)n2-c2c1[nH]c(Cl)c2Cl

IC50 [4]: 170 nM
Structure (SMILES): O=C(O)CSc1cc(NS(=O)(=O)c2ccc(Oc3ccc(F)cc3)cc2)c2ccccc2c1O

Ki [9]: > 444 nM
Structure (SMILES): CC1(C)CCC(CN2CCN(c3ccc(C(=O)NS(=O)(=O)c4ccc(NCC5CCOCC5)c([N+](=O)[O-])c4)c(Oc4cnc5[nH]ccc5c4)c3)CC2)=C(c2ccc(Cl)cc2)C1 [VENETOCLAX]

IC50 [14]: 2900 nM
IC50 [15]: 1110 nM
Structure (SMILES): COC1=CC(c2cc3ccccc3[nH]2)=N/C1=C\c1[nH]c(C)cc1C [OBATOCLAX]

From ChEMBL document CHEMBL3817778, “Small molecules targeting Mcl-1: the search for a silver bullet in cancer therapy” (Medchemcomm, 2016)
